Among the data in patent US9273067B2, “Pyrazolopyrimidine macrocycles as inhibitors of human immunodeficiency virus replication” (BRISTOL-MYERS SQUIBB COMPANY, priority 2014, dated 2016) are EC50 and ring closure, yield after HPLC values, retold here.

Series [1] deals with NL-RLuc virus (recombinant HIV NL4-3 with Renilla Luciferase) in MT-2 cells. In words: Inhibition of HIV replication (NL-RLuc virus in MT-2 cells, luciferase readout). Format: cell-based, human immunodeficiency virus (HIV). The essentials:
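NL4-3 carrying Renilla luciferase in place of part of nef, produced in 293T cells, was used to infect MT-2 cells in RPMI 1640/10% FBS with serial compound dilutions. After 5 days, virus growth was read by luciferase. EC50 came from the median effect equation over at least 2 experiments.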

[2] abbreviates: MT2, 120 h, NL-RLuc virus infecting MT-2 cells, 5 days of incubation, 10% FBS, luciferase quantitation, at least 2 experiments.

Values joined by “and” are separate entries in the source; they are usually repeats but may differ in a detail not shown here. Identical values can stand only once. Like-named read-outs stand apart in the source and are kept apart here.

Take `Cc1nc2cc3nn2c(c1[C@H](OC(C)(C)C)C(=O)O)N1CCC(C)(CC1)OCC=CC[C@H](C)Oc1cc(Cl)ccc1COC3` [Example 34, (2S)-2-(tert-Butoxy)-2-[(20S)-16-chloro-4,20,26-trimethyl-11,19,25-trioxa-1,5,7,8-tetraazapentacyclo[24.2.2.1^6,^9.0^2,^7.0^13,^18]hentriaconta-2,4,6(31),8,13,15,17,22-octaen-3-yl]acetic acid]: in series [1] (setting [2]), the EC50 (as a rule, the midpoint of the concentration-response curve) was 0.005 µM. The ring closure, yield after HPLC (from C=CCOC1(C)CCN(c2c([C@H](OC(C)(C)C)C(=O)O)c(C)nc3cc(COCc4ccc(Cl)cc4O[C@@H](C)CC=C)nn23)CC1, rcm bond, 20-membered ring, Hoveyda-Grubbs II/CuI, DCE, 31.5 mM, 90.0 °C, 1.5 h) worked out at 7.32%. On to `CCOC(=O)[C@@H](OC(C)(C)C)c1c(C)nc2cc3nn2c1N1CCC(C)(CC1)OCC=CCOc1ccccc1CC(=O)NC3`, for which the ring closure, yield after HPLC (from C=CCOc1ccccc1CC(=O)NCc1cc2nc(C)c([C@H](OC(C)(C)C)C(=O)OCC)c(N3CCC(C)(OCC=C)CC3)n2n1, rcm bond, 20-membered ring, Hoveyda-Grubbs II (5 mol%), then NaOH, 1,2-dichloroethane, 8.6 mM, 70.0 °C, 4.0 h, 2 steps) was 11.6% and 31.6%. `Cc1nc2cc3nn2c(c1[C@H](OC(C)(C)C)C(=O)O)N1CCC(C)(CC1)OCC=CC[C@H](C)Oc1ccc(F)cc1COC3` [Example 27, (2S)-2-(tert-Butoxy)-2-[(20S)-15-fluoro-4,20,26-trimethyl-11,19,25-trioxa-1,5,7,8-tetraazapentacyclo[24.2.2.1^6,^9.0^2,^7.0^13,^18]hentriaconta-2,4,6(31),8,13,15,17,22-octaen-3-yl]acetic acid]: in series [1] (setting [2]), the half-maximal effective concentration (EC50) was 0.037 µM. The molecule also returned a ring closure, yield after HPLC (from C=CCOC1(C)CCN(c2c([C@H](OC(C)(C)C)C(=O)O)c(C)nc3cc(COCc4cc(F)ccc4O[C@@H](C)CC=C)nn23)CC1, rcm bond, 20-membered ring, Hoveyda-Grubbs II/CuI, DCE, 0.41 mM, 90.0 °C, 3.0 h) of 50.2%. The molecule `CCOC(=O)[C@@H](OC(C)(C)C)c1c(C)nc2cc3nn2c1N1CCC(C)(CC1)OCCCC[C@H](C)Oc1ccc(F)c(F)c1CCC3` showed a ring closure, yield after HPLC (from CCOC(=O)[C@@H](OC(C)(C)C)c1c(C)nc2cc(CCCc3c(O)ccc(F)c3F)nn2c1N1CCC(C)(OCCCC[C@@H](C)O)CC1, ether bond, 20-membered ring, PPh3/DEAD, THF, 5.2 mM, 3.0 h, 2 steps) of 23.6%. Under “from CCOC(=O)[C@@H](OC(C)(C)C)c1c(C)nc2cc(CCCc3cc(F)cc(F)c3O)nn2c1N1CCC(C)(OCCCC[C@@H](C)O)CC1, ether bond, 20-membered ring, PPh3/DEAD, THF, 6.4 mM, 3.0 h, 2 steps”, `CCOC(=O)[C@@H](OC(C)(C)C)c1c(C)nc2cc3nn2c1N1CCC(C)(CC1)OCCCC[C@H](C)Oc1c(F)cc(F)cc1CCC3` displayed a ring closure, yield after HPLC of 37.6%. As for `CCOC(=O)[C@@H](OC(C)(C)C)c1c(C)nc2cc3nn2c1N1CCC(C)(CC1)OCC=CCOC1(CCCCC1)c1cn(nn1)C3`, the ring closure, yield after HPLC (from C=CCOC1(C)CCN(c2c([C@H](OC(C)(C)C)C(=O)OCC)c(C)nc3cc(Cn4cc(C5(OCC=C)CCCCC5)nn4)nn23)CC1, rcm bond, 19-membered ring, Hoveyda-Grubbs II (5 mol%), then NaOH, 1,2-dichloroethane, 4.3 mM, 70.0 °C, 2.0 h, 2 steps) is 30.6% and 24.1%. With `Cc1cc2c(cc1Cl)COCc1cc3nc(C)c([C@H](OC(C)(C)C)C(=O)O)c(n3n1)N1CCC(C)(CC1)OCCCC[C@H](C)O2` [Example 69, (2S)-2-(tert-Butoxy)-2-[(20S)-15-chloro-4,16,20,26-tetramethyl-11,19,25-trioxa-1,5,7,8-tetraazapentacyclo[24.2.2.1^6,^9.0^2,^7.0^13,^18]hentriaconta-2,4,6(31),8,13,15,17-heptaen-3-yl]acetic acid], the EC50 in series [1] (setting [2]) came to 0.012 µM. Same read-out and setting: then `Cc1nc2cc3nn2c(c1[C@H](OC(C)(C)C)C(=O)O)N1CCC(C)(CC1)OCCCCCc1cc(F)ccc1CN(C1CC1)C3` [Example 62, (2S)-2-(tert-Butoxy)-2-{11-cyclopropyl-16-fluoro-4,25-dimethyl-24-oxa-1,5,7,8,11-pentaazapentacyclo[23.2.2.1^6,^9.0^2,^7.0^13,^18]triaconta-2,4,6(30),8,13(18),14,16-heptaen-3-yl}acetic acid], with 0.041 µM; and `Cc1nc2cc3nn2c(c1[C@H](OC(C)(C)C)C(=O)O)N1CCC(C)(CC1)OCC=CCOCc1cn(nn1)C3` [Example 1, (2S)-2-(tert-Butoxy)-2-[4,22-dimethyl-16,21-dioxa-1,5,7,8,11,12,13-heptaazapentacyclo[20.2.2.1^6,^9.1^11,^14.0^2,^7]octacosa-2,4,6(28),8,12,14(27),18-heptaen-3-yl]acetic acid], with 2.49 µM.

In turn, `CCOC(=O)[C@@H](OC(C)(C)C)c1c(C)nc2cc3nn2c1N1CCC(C)(CC1)OCC=CCc1ccccc1C(=O)NC3` had a ring closure, yield after HPLC (from C=CCOC1(C)CCN(c2c([C@H](OC(C)(C)C)C(=O)OCC)c(C)nc3cc(CNC(=O)c4ccccc4CC=C)nn23)CC1, rcm bond, 18-membered ring, Hoveyda-Grubbs II (5 mol%), then NaOH, 1,2-dichloroethane, 4.7 mM, 70.0 °C, 2.0 h, 2 steps) of 71.1%. In the case of `Cc1nc2cc3nn2c(c1[C@H](OC(C)(C)C)C(=O)O)N1CCC(C)(CC1)OCCCCCc1cccc(c1)COC3` [Example 59, (2S)-2-(tert-Butoxy)-2-{4,24-dimethyl-11,23-dioxa-1,5,7,8-tetraazapentacyclo[22.2.2.1^6,^9.1^13,^17.0^2,^7]triaconta-2,4,6(30),8,13(29),14,16-heptaen-3-yl}acetic acid], the concentration for a half-maximal effect (EC50) in series [1] (setting [2]) turned out to be 0.016 µM.

With `CCOC(=O)[C@@H](OC(C)(C)C)c1c(C)nc2cc3nn2c1N1CCC(C)(CC1)OCCCC[C@H](C)Oc1cc(F)c(F)cc1CCC3`, the ring closure, yield after HPLC (from CCOC(=O)[C@@H](OC(C)(C)C)c1c(C)nc2cc(CCCc3cc(F)c(F)cc3O)nn2c1N1CCC(C)(OCCCC[C@@H](C)O)CC1, ether bond, 20-membered ring, PPh3/DEAD, THF, 10.5 mM, 3.0 h, 2 steps) was 19.2%. The molecule `CCOC(=O)[C@@H](OC(C)(C)C)c1c(C)nc2cc3nn2c1N1CCC(C)(CC1)OCC=CCOc1cccc(c1)-c1cn(nn1)C3` returned a ring closure, yield after HPLC (from C=CCOc1cccc(-c2cn(Cc3cc4nc(C)c([C@H](OC(C)(C)C)C(=O)OCC)c(N5CCC(C)(OCC=C)CC5)n4n3)nn2)c1, rcm bond, 21-membered ring, Hoveyda-Grubbs II (5 mol%), then H2, Pd/C, then NaOH, 1,2-dichloroethane, 1.8 mM, 70.0 °C, 2.0 h, 3 steps) of 37.2%. Regarding `Cc1nc2cc3nn2c(c1[C@H](OC(C)(C)C)C(=O)O)N1CCC(C)(CC1)OCCCCOC1(CCCCC1)c1cn(nn1)C3` [Example 8, (2S)-2-(tert-Butoxy)-2-{4′,22′-dimethyl-16′,21′-dioxa-1′,5′,7′,8′,11′,12′,13′-heptaazaspiro[cyclohexane-1,15′-pentacyclo[20.2.2.1^6,^9.1^11,^14.0^2,^7]octacosane]-2′,4′,6′(28′),8′,12′,14′(27′)-hexaen-3′-yl}acetic acid], the EC50 in series [1] (setting [2]) came out at 0.111 µM. Take `Cc1nc2cc3nn2c(c1[C@H](OC(C)(C)C)C(=O)O)N1CCC(C)(CC1)OCC=CCOc1ccccc1CC(=O)NC3` [Example 16, (2S)-2-(tert-Butoxy)-2-[4,26-dimethyl-12-oxo-20,25-dioxa-1,5,7,8,11-pentaazapentacyclo[24.2.2.1^6,^9.1^2,^7.0^14,^19]hentriaconta-2,4,6(31),8,14(19),15,17,22-octaen-3-yl]acetic acid]: the EC50 in series [1] (NL-RLuc virus infecting MT-2 cells, 5 days of incubation, 10% FBS, luciferase quantitation, at least 2 experiments, read-out: EC50) was 0.021 µM.

The molecule `CCOC(=O)[C@@H](OC(C)(C)C)c1c(C)nc2cc3nn2c1N1CCC(C)(CC1)OCC=CCN(Cc1ccc(F)c(C)c1)C(=O)C(=O)NC3` gave a ring closure, yield after HPLC (from C=CCOC1(C)CCN(c2c([C@H](OC(C)(C)C)C(=O)OCC)c(C)nc3cc(CNC(=O)C(=O)N(CC=C)Cc4ccc(F)c(C)c4)nn23)CC1, rcm bond, 18-membered ring, Hoveyda-Grubbs II (5 mol%), then NaOH, 1,2-dichloroethane, 4.03 mM, 70.0 °C, 2.0 h, 2 steps) of 63.3%. On to `Cc1nc2cc3nn2c(c1[C@H](OC(C)(C)C)C(=O)O)N1CCC(C)(CC1)OCCCCC(c1ccccc1)Oc1ccc(F)cc1COC3` (stereo partly drawn) [Example 51, (2S)-2-(tert-butoxy)-2-{15-fluoro-4,26-dimethyl-20-phenyl-11,19,25-trioxa-1,5,7,8-tetraazapentacyclo[24.2.2.1^6,^9.0^2,^7.0^13,^18]hentriaconta-2,4,6(31),8,13(18),14,16-heptaen-3-yl}acetic acid], for which, in series [1] ({}), the half-maximal effective concentration (EC50) was 0.018 µM. Regarding `CCOC(=O)[C@@H](OC(C)(C)C)c1c(C)nc2cc3nn2c1N1CCC(C)(CC1)OCC=CC[C@H](C)Oc1cc(F)c(F)cc1COC3`, the ring closure, yield after HPLC (from C=CCOC1(C)CCN(c2c([C@H](OC(C)(C)C)C(=O)OCC)c(C)nc3cc(COCc4cc(F)c(F)cc4O[C@@H](C)CC=C)nn23)CC1, rcm bond, 20-membered ring, Hoveyda-Grubbs II/CuI, DCE, 4.25 mM, 90.0 °C, 3.0 h) amounted to 27%.

Consider `Cc1nc2cc3nn2c(c1[C@H](OC(C)(C)C)C(=O)O)N1CCC(C)(CC1)OCC=CCc1ccccc1C(=O)NC3` [Example 14, (2S)-2-(tert-Butoxy)-2-[4,24-dimethyl-12-oxo-23-oxa-1,5,7,8,11-pentaazapentacyclo[22.2.2.1^6,^9.0^2,^7.0^13,^18]nonacosa-2,4,6(29),8,13(18),14,16,20-octaen-3-yl]acetic acid], for which the 50% effective concentration (EC50) in series [1] (setting [2]) came out at 0.045 µM. As for `CCCC1CCCCOC2(C)CCN(CC2)c2c([C@H](OC(C)(C)C)C(=O)O)c(C)nc3cc(nn23)COCc2ccc(C)cc2O1` (stereo partly drawn) [Example 45, (2S)-2-(tert-butoxy)-2-{4,16,26-trimethyl-20-propyl-11,19,25-trioxa-1,5,7,8-tetraazapentacyclo[24.2.2.1^6,^9.0^2,^7.0^13,^18]hentriaconta-2,4,6(31),8,13(18),14,16-heptane-3-yl}acetic acid], the half-maximal effective concentration (EC50) in series [1] ({}) stood at 0.035 µM. As to `CCCC1CCCCOC2(C)CCN(CC2)c2c([C@H](OC(C)(C)C)C(=O)O)c(C)nc3cc(nn23)COCc2cc(F)ccc2O1` (stereo partly drawn) [Example 49, (2S)-2-(tert-butoxy)-2-{15-fluoro-4,26-dimethyl-20-propyl-11,19,25-trioxa-1,5,7,8-tetraazapentacyclo[24.2.2.1^6,^9.0^2,^7.0^13,^18]hentriaconta-2,4,6(31),8,13(18),14,16-heptaen-3-yl}acetic acid], the 50% effective concentration (EC50) in series [1] ({}) turned out to be 0.005 µM.
